Data set [1] is described as follows: Tmax of compound (0.3 mg/kg) on oral administration to rats. The data set is classed as ADME, organism-based. To be noted: rat, in vivo.
Data set [2] in a line: Area under concentration time curve value in rat was determined at a intravenous dosage of 0.3 mg/kg. It is filed as ADME, organism-based. More on the design: dose 0.3 mg/kg, route intravenous. To be noted: in vivo.
Data set [3] in a line: Area under the concentration time curve value of compound was determined in rats after oral dosage of 0.3 mg/kg. As to conditions: rat, in vivo. It is filed as ADME, organism-based. On the set-up: dose 0.3 mg/kg, route oral.
Data set [4] deals with Nitric oxide synthase, inducible (Homo sapiens, UniProt P35228). Description: Inhibitory concentration against inducible […].
Sequence of Nitric oxide synthase, inducible (P35228 whole entry): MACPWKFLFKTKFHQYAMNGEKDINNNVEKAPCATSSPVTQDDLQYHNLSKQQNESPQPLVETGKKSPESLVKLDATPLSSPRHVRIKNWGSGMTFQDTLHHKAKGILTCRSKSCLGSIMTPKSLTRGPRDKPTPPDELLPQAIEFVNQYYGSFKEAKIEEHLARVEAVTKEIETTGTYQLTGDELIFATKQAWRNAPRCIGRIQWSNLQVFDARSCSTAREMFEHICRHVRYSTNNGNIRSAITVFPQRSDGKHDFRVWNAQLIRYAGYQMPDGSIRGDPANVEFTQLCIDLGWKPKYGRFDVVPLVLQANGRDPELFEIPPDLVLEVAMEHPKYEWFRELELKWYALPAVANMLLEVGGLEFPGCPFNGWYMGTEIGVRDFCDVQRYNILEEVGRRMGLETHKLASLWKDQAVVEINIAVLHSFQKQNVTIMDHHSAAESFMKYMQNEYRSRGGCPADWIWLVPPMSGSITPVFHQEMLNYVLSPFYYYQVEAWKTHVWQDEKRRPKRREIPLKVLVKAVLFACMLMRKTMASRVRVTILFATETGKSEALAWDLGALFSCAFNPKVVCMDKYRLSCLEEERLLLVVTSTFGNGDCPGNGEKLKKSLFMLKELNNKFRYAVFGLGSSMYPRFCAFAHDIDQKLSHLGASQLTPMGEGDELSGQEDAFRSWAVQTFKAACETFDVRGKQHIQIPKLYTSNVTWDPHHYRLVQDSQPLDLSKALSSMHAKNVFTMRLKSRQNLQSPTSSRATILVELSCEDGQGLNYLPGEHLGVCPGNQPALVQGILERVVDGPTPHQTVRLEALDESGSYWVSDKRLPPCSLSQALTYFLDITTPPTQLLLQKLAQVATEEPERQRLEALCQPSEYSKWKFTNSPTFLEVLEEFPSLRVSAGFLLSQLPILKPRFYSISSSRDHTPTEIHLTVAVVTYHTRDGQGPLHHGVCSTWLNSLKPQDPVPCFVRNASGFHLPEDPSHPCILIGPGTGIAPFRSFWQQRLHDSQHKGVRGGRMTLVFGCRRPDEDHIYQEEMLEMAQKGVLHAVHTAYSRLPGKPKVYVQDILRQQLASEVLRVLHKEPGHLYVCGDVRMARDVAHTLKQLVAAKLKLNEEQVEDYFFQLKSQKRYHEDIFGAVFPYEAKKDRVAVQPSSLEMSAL
Data set [5] can be described thus: Oral bioavailability of compound (0.3 mg/kg) on oral administration to rats. It is filed as ADME, organism-based. To be noted: rat, in vivo, read-out: Bioavailabiility.
A short description of data set [6]: Clearance rate (0.3 mg/kg) on intravenous administration to rats. The data set is classed as ADME, organism-based. To be noted: rat, in vivo.
Data set [7] is described as follows: Cmax of compound (0.3 mg/kg) on oral administration to rats. It is filed as ADME, organism-based. On the set-up: dose 0.3 mg/kg, route oral. As to conditions: rat, in vivo.
A short description of data set [8]: Half life value of compound (0.3 mg/kg) on intravenous administration to […]. The data set is classed as ADME, organism-based. As to conditions: rat, in vivo.
Another data set deals with Mus musculus. The data set is described as follows: Inhibitory dose (p.o.) tested against plasma nitrite/nitrate levels in LPS-treated mice. As to conditions: po, read-out: ID50 (the source's name). It is filed as functional.
Data set [9] in a line: Half life value of compound (0.3 mg/kg) on oral administration to rats. It is filed as ADME, organism-based. As to conditions: rat, in vivo.
The target of another data set is Nitric oxide synthase 1 (Homo sapiens, UniProt P29475). The data set is described as follows: Inhibitory concentration against neuronal […].
Sequence of Nitric oxide synthase 1 (P29475 whole entry): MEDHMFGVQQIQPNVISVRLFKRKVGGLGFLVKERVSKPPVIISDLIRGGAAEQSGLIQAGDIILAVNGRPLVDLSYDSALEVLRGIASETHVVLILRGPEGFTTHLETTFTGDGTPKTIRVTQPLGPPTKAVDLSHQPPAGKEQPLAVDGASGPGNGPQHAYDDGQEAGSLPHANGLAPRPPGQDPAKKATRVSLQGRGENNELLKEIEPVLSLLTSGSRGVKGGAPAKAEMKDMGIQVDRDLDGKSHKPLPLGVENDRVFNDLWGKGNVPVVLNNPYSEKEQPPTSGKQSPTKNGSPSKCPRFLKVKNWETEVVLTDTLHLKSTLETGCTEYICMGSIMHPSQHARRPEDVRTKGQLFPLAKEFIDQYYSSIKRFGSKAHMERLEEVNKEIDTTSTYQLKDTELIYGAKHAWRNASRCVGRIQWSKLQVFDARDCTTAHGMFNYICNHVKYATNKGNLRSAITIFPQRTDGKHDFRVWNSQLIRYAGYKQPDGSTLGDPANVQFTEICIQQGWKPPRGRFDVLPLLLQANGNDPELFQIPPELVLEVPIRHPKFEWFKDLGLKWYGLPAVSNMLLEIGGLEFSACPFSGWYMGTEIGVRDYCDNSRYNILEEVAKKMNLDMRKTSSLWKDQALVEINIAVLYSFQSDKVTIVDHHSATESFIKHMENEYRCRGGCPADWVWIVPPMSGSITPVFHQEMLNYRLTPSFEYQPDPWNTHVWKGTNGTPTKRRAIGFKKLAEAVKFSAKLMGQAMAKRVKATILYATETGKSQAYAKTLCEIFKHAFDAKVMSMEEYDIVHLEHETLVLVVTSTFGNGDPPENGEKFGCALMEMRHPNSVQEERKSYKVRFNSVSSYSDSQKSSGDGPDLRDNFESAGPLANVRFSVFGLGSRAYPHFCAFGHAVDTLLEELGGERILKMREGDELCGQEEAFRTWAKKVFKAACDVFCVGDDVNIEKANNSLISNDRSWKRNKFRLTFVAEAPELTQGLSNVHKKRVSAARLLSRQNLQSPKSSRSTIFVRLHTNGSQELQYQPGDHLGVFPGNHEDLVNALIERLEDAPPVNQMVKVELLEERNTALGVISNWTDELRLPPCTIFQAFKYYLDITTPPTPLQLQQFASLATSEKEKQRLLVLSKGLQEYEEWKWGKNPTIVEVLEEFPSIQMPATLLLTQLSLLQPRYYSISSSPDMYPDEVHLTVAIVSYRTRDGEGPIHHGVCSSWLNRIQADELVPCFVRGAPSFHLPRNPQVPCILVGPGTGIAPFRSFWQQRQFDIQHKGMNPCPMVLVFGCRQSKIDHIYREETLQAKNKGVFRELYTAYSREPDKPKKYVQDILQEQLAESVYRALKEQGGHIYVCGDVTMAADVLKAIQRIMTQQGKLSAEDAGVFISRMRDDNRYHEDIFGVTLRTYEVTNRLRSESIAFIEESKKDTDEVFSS

Usually Tmax stands for the time at which the peak concentration occurs. For orientation: AUC means concentration integrated over time. Read a low AUC as low exposure. By IC50 is commonly meant the concentration that gives 50% inhibition. For orientation: clearance means a measure of how efficiently the substance is removed, as volume per time. The low end stands for inefficient removal, the high end for efficient removal. As a reminder, the Cmax is the maximum level reached in the sampled fluid or tissue. The term half-life denotes the time in which the quantity being followed falls by half. Take `CC[C@H]1[Se]C(N)=N[C@@H]1C`: in data set [1], the time of peak concentration (Tmax) stood at 30 min. The values for the AUC in data set [2] and in data set [3] were 117 ng·h/mL and 45 ng·h/mL, respectively. The IC50 in [4] was 9.3 nM; against Nitric oxide synthase 1 it was 790 nM. In addition, the bioavailability in [5] amounted to 73%. Moreover, in data set [6], the clearance is 55.5 mL/min/kg. Further, the peak level in data set [7] (Cmax) was 45 ng/mL. Moreover, the values for the half-life in data set [8] and in [9] were 57 min and 72 min, respectively. Besides, the ED50 in the data set on Mus musculus was determined as 0.3 mg/kg.

Consider `CC[C@@H]1[Se]C(N)=N[C@H]1C`, for which the concentration for half-maximal inhibition (IC50) was 34 nM in data set [4] and 350 nM on Nitric oxide synthase 1.

Regarding `CC[C@@H]1N=C(N)[Se][C@@H]1C`, the IC50 in [4] is 80 nM; against Nitric oxide synthase 1, 740 nM.

For the compound `CC[C@H]1N=C(N)[Se][C@H]1C`, the IC50 in data set [4] is 21 nM; on Nitric oxide synthase 1, 280 nM.

Take `CC[C@H]1[Se]C(N)=N[C@H]1C`: the values for the 50% inhibitory concentration (IC50) (in data set [4]; on Nitric oxide synthase 1) were 340 nM and 6900 nM, respectively.

Regarding `CC[C@@H]1N=C(N)[Se][C@H]1C`, the IC50 in data set [4] came to 21 nM; against Nitric oxide synthase 1, 280 nM.

Consider `CC[C@H]1N=C(N)[Se][C@@H]1C`, for which the figures for the concentration for half-maximal inhibition (IC50) (in data set [4]; on Nitric oxide synthase 1) were 9.4 nM and 92 nM, respectively.

In the case of `CC[C@H]1SC(N)=N[C@@H]1C`, the figures for the IC50 (in data set [4]; at Nitric oxide synthase 1) were 6.6 nM and 380 nM, respectively.

For `CC[C@@H]1[Se]C(N)=N[C@@H]1C`, the IC50 in data set [4] amounted to 66 nM; at Nitric oxide synthase 1, 1300 nM.

For the origin of these results see ChEMBL document CHEMBL1142001, “Novel and orally bioavailable inducible nitric oxide synthase inhibitors: synthesis and evaluation of optically active 4,5-dialkyl-2-iminoselenazolidine derivatives” (Bioorg Med Chem Lett, 2005).
